Format in all cases: cell-based
Assay [1] relates to P. aeruginosa ATCC 27853 (wild-type/QC strain). The experiment in a line: broth microdilution MIC assay, P. aeruginosa ATCC 27853. The following applies: Pseudomonas aeruginosa, ATCC27853; Table 5; P. aeruginosa 27853; read-out: P. aeruginosa 27853 MIC. As to the method: (§1) To determine the ability of test compounds to potentiate the inhibition of the growth of bacterial strains, classic cell-based broth microdilution MIC assays were employed. MIC assays are performed according to CLSI methods except where otherwise noted (CLSI, 2011 and CLSI, 2009). The reference strains S. aureus ATCC 29213 (methicillin sensitive), S. aureus ATCC 33591 (methicillin-resistant), E. coli ATCC 25922 (wild-type/QC strain), P. aeruginosa ATCC 27853 (wild-type/QC strain), and the clinical isolate P. aeruginosa PA 8 were used to determine the ability of the exemplary carbapenem compounds to inhibit bacterial growth. An expanded panel of methicillin resistance S. aureus (MRSA) and Pseudomonas was also used to determine the ability of exemplary carbapenem compounds to inhibit bacterial growth across a broader representation of those species. To determine activity in MRSA and in addition to S. aureus ATCC 33591, S. aureus USA 300, USA 400 and USA 600, some of the most common clones found to cause human infection, were also used. To further gauge the impact on the carbapenem compounds due to various resistance mechanisms in Pseudomonas, the following strains were included: P. aeruginosa 35151 (hyper-permeable strain), P. aeruginosa AmexAB-OprM (an efflux pump knockout), and P. aeruginosa PA 3 (a clinical isolate of reduced carbapenem susceptibility). Briefly, cryo-preserved bacterial cultures of clinical strains are streaked for isolation on appropriate agar medium, in this case Mueller Hinton II agar. Following incubation to allow formation of colonies, these plates are sealed with parafilm and stored refrigerated for up to two weeks. For preparation of assay inocula and to ensure low variability, at least 5 colonies are picked from the agar plates with an inoculating loop and aseptically transferred to a culture tube containing 3 mL of Mueller-Hinton Broth (supplemented with divalent cations to required levels based on Manufacturers' specification). The broth culture is grown for 3-5 hours at 37° C. with shaking at 200 rpm. Meanwhile, 2-fold serial dilutions of test compounds are conducted in a 96 well plate with a final volume of 75 μL per well at 2-fold the final desired concentration. After the dilution plates are set up the growing cultures are then diluted in a cuvette containing MH II broth and the optical density is measured at 600 nm. Inocula are diluted such that 75 μL of this culture in Mueller-Hinton Broth results in a starting bacterial concentration of 5×10^5 CFU/mL when added to the dilution plates. The plates are incubated 16-20 hours at 37° C. The MIC is read visually as the lowest concentration well with no bacterial growth.
(§2) Representative results are shown in Tables 3, 4, and 5 where A represents an MIC>32 μg/mL, B represents an MIC between 8 and 32 μg/mL inclusive, C represents an MIC between 1 and 4 μg/mL inclusive, and D represents an MIC of <1 μg/mL. NT=Not Tested.
(In broth dilution the organism is exposed to a series of concentrations in liquid medium.)

Another assay relates to S. aureus USA600. The experiment in a line: broth microdilution MIC assay, S. aureus USA 600. The conditions noted are these: Staphylococcus aureus; Table 4; S. aureus USA600; read-out: S. aureus USA600 MIC. As to the method:
as §1, §2

Another assay relates to S. aureus USA 300. Description: broth microdilution MIC assay, S. aureus USA 300. The following applies: Staphylococcus aureus; Table 4; S. aureus USA300; read-out: S. aureus USA300 MIC. As to the method: as §1, §2
In assay [2] the test system is P. aeruginosa ΔmexAB-OprM (an efflux pump knockout). Description: broth microdilution MIC assay, P. aeruginosa ΔmexAB-OprM. The conditions noted are these: Pseudomonas aeruginosa, 20 h, read-out: P. aeruginosa ΔmexAB-OprM MIC. On the procedure:
as §1, §2

Assay [3] relates to P. aeruginosa 35151 (hyper-permeable strain). Description: broth microdilution MIC assay, P. aeruginosa 35151. The following applies: Pseudomonas aeruginosa, read-out: P. aeruginosa 35151 MIC. As to the method: as §1, §2
For assay [4], the system named is S. aureus ATCC 33591 (methicillin-resistant). Description: broth microdilution MIC assay, S. aureus ATCC 33591. The following applies: Staphylococcus aureus, ATCC33591; Table 4; S. aureus 33591; read-out: S. aureus 33591 MIC. On the procedure:
as §1, §2

The subject of assay [5] is E. coli ATCC 25922 (wild-type/QC strain). The experiment in a line: broth microdilution MIC assay, E. coli ATCC 25922. The following applies: Escherichia coli, ATCC25922; Table 4; E. coli 25922; read-out: E. coli 25922 MIC. As to the method:
as §1, §2

The structures appear in SMILES notation.

From patent US12084445B2, “Broad-spectrum carbapenems” (VenatoRx Pharmaceuticals, Inc., priority 2018, dated 2024) come the findings set out here.

Consider `C[C@@H](O)[C@H]1C(=O)N2C(C(=O)O)=C(S[C@@H]3CCN(C[C@H]4CCN(C(=N)N)C4)C3)[C@H](C)[C@H]12` [Example 52, (4R,5S,6S)-3-(((R)-1-(((R)-1-carbamimidoylpyrrolidin-3-yl)methyl)pyrrolidin-3-yl)thio)-6-((R)-1-hydroxyethyl)-4-methyl-7-oxo-1-azabicyclo[3.2.0]hept-2-ene-2-carboxylic acid], for which the MIC – broadly, the smallest concentration in the dilution series that meets the test's criterion for growth inhibition – in assay [1] is 1 to 4 µg/mL; in the assay on S. aureus USA600 it was under 1 µg/mL; in the assay on S. aureus USA 300, under 1 µg/mL; in assay [2] it was under 1 µg/mL; in assay [3], under 1 µg/mL; in assay [4], 1 to 4 µg/mL. Also, the MIC in assay [5] is under 1 µg/mL.
With `C[C@@H](O)[C@H]1C(=O)N2C(C(=O)O)=C(S[C@@H]3CCN(C[C@@H]4CCN(C(=N)N)C4)C3)[C@H](C)[C@H]12` [Example 54, (4R,5S,6S)-3-(((R)-1-(((S)-1-carbamimidoylpyrrolidin-3-yl)methyl)pyrrolidin-3-yl)thio)-6-((R)-1-hydroxyethyl)-4-methyl-7-oxo-1-azabicyclo[3.2.0]hept-2-ene-2-carboxylic acid], the MIC was 1 to 4 µg/mL in assay [1]; 1 to 4 µg/mL in the assay on S. aureus USA600; under 1 µg/mL with S. aureus USA 300; under 1 µg/mL in assay [2]; under 1 µg/mL in assay [3]; 1 to 4 µg/mL in assay [4]. Also, the minimal inhibitory concentration (MIC) in assay [5] was under 1 µg/mL.
With `C[C@@H](O)[C@H]1C(=O)N2C(C(=O)O)=C(SC3CN(C4CCNCC4)C3)[C@H](C)[C@H]12` [Example 55, (4R,5S,6S)-6-((R)-1-hydroxyethyl)-4-methyl-7-oxo-3-((1-(piperidin-4-yl)azetidin-3-yl)thio)-1-azabicyclo[3.2.0]hept-2-ene-2-carboxylic acid], the MIC is 1 to 4 µg/mL in assay [1]; under 1 µg/mL in the assay with S. aureus USA600; 1 to 4 µg/mL in the assay with S. aureus USA 300; 1 to 4 µg/mL in assay [2]; under 1 µg/mL in assay [3]; 1 to 4 µg/mL in assay [4]. Further, the MIC in assay [5] is under 1 µg/mL.
With `C[C@@H](O)[C@H]1C(=O)N2C(C(=O)O)=C(SC3CN(CCC4CCNCC4)C3)[C@H](C)[C@H]12` [Example 56, (4R,5S,6S)-6-((R)-1-hydroxyethyl)-4-methyl-7-oxo-3-((1-(2-(piperidin-4-yl)ethyl)azetidin-3-yl)thio)-1-azabicyclo[3.2.0]hept-2-ene-2-carboxylic acid], the MIC in assay [1] is 1 to 4 µg/mL; in the assay with S. aureus USA600, 1 to 4 µg/mL; with S. aureus USA 300, 1 to 4 µg/mL; in assay [2] it was 1 to 4 µg/mL; in assay [3], under 1 µg/mL; in assay [4] it was 1 to 4 µg/mL. For the same compound, in assay [5], the MIC was under 1 µg/mL.
As to `C[C@@H](O)[C@H]1C(=O)N2C(C(=O)O)=C(SC3CN(CC4CCCNC4)C3)[C@H](C)[C@H]12` (stereo partly drawn) [Example 57, (4R,5S,6S)-6-((R)-1-hydroxyethyl)-4-methyl-7-oxo-3-((1-(piperidin-3-ylmethyl)azetidin-3-yl)thio)-1-azabicyclo[3.2.0]hept-2-ene-2-carboxylic acid], the MIC in assay [1] was 1 to 4 µg/mL; with S. aureus USA600, 1 to 4 µg/mL; with S. aureus USA 300 it was 1 to 4 µg/mL; in assay [2], 1 to 4 µg/mL; in assay [3], under 1 µg/mL; in assay [4], 8 to 32 µg/mL. Moreover, the MIC in assay [5] is under 1 µg/mL.
Turning to `C[C@@H](O)[C@H]1C(=O)N2C(C(=O)O)=C(SC3CN(C[C@@H]4CCNC4)C3)[C@H](C)[C@H]12` [Example 58, (4R,5S,6S)-6-((R)-1-hydroxyethyl)-4-methyl-7-oxo-3-((1-(((R)-pyrrolidin-3-yl)methyl)azetidin-3-yl)thio)-1-azabicyclo[3.2.0]hept-2-ene-2-carboxylic acid], the MIC is 1 to 4 µg/mL in assay [1]; 1 to 4 µg/mL in the assay with S. aureus USA600; 1 to 4 µg/mL with S. aureus USA 300; 1 to 4 µg/mL in assay [2]; under 1 µg/mL in assay [3]; 1 to 4 µg/mL in assay [4]. The MIC in assay [5] was under 1 µg/mL.
Take `C[C@@H](O)[C@H]1C(=O)N2C(C(=O)O)=C(SC3CN(C[C@H]4CCNC4)C3)[C@H](C)[C@H]12` [Example 59, (4R,5S,6S)-6-((R)-1-hydroxyethyl)-4-methyl-7-oxo-3-((1-(((S)-pyrrolidin-3-yl)methyl)azetidin-3-yl)thio)-1-azabicyclo[3.2.0]hept-2-ene-2-carboxylic acid]: the MIC in assay [1] is 1 to 4 µg/mL; in the assay on S. aureus USA600 it was 1 to 4 µg/mL; with S. aureus USA 300 it was 1 to 4 µg/mL; in assay [2] it was 1 to 4 µg/mL; in assay [3] it was under 1 µg/mL; in assay [4], 1 to 4 µg/mL. The MIC in assay [5] is under 1 µg/mL.
For the compound `C[C@@H](O)[C@H]1C(=O)N2C(C(=O)O)=C(SC3CN(C[C@H]4CNCCO4)C3)[C@H](C)[C@H]12` [Example 60, (4R,5S,6S)-6-((R)-1-hydroxyethyl)-4-methyl-3-((1-(((R)-morpholin-2-yl)methyl)azetidin-3-yl)thio)-7-oxo-1-azabicyclo[3.2.0]hept-2-ene-2-carboxylic acid], the MIC in assay [1] is 8 to 32 µg/mL; with S. aureus USA600, 1 to 4 µg/mL; in the assay on S. aureus USA 300 it was 1 to 4 µg/mL; in assay [2], 1 to 4 µg/mL; in assay [3] it was under 1 µg/mL; in assay [4], 8 to 32 µg/mL. The MIC in assay [5] was under 1 µg/mL.
Regarding `C[C@@H](O)[C@H]1C(=O)N2C(C(=O)O)=C(SC3CN(C[C@@H]4CNCCO4)C3)[C@H](C)[C@H]12` [Example 61, (4R,5S,6S)-6-((R)-1-hydroxyethyl)-4-methyl-3-((1-(((S)-morpholin-2-yl)methyl)azetidin-3-yl)thio)-7-oxo-1-azabicyclo[3.2.0]hept-2-ene-2-carboxylic acid], the MIC in assay [1] is 1 to 4 µg/mL; in the assay on S. aureus USA600, 1 to 4 µg/mL; in the assay with S. aureus USA 300 it was 1 to 4 µg/mL; in assay [2], 1 to 4 µg/mL; in assay [3], under 1 µg/mL; in assay [4], 8 to 32 µg/mL. For the same compound, the MIC in assay [5] was under 1 µg/mL.
Regarding `C[C@@H](O)[C@H]1C(=O)N2C(C(=O)O)=C(SC3CN(C[C@H]4CC[C@H](N)CC4)C3)[C@H](C)[C@H]12` [Example 62, (4R,5S,6S)-3-((1-(((1r,4R)-4-aminocyclohexyl)methyl)azetidin-3-yl)thio)-6-((R)-1-hydroxyethyl)-4-methyl-7-oxo-1-azabicyclo[3.2.0]hept-2-ene-2-carboxylic acid], the MIC in assay [1] is 1 to 4 µg/mL; in the assay with S. aureus USA600, under 1 µg/mL; with S. aureus USA 300 it was 1 to 4 µg/mL; in assay [2] it was 1 to 4 µg/mL; in assay [3] it was under 1 µg/mL; in assay [4] it was 1 to 4 µg/mL. Besides, the MIC in assay [5] is under 1 µg/mL.
For `C[C@@H](O)[C@H]1C(=O)N2C(C(=O)O)=C(S[C@@H]3CCN(CC4CNCCS4)C3)[C@H](C)[C@H]12` (stereo partly drawn) [Example 63, (4R,5S,6S)-6-((R)-1-hydroxyethyl)-4-methyl-7-oxo-3-(((3R)-1-(thiomorpholin-2-ylmethyl)pyrrolidin-3-yl)thio)-1-azabicyclo[3.2.0]hept-2-ene-2-carboxylic acid], the MIC in assay [1] is 8 to 32 µg/mL; in the assay with S. aureus USA600 it was 1 to 4 µg/mL; in the assay with S. aureus USA 300 it was 1 to 4 µg/mL; in assay [2], 1 to 4 µg/mL; in assay [3], under 1 µg/mL; in assay [4], 1 to 4 µg/mL. Besides, the minimal inhibitory concentration (MIC) in assay [5] is under 1 µg/mL.
